Measurements published in ChEMBL document CHEMBL5614367, “Hydroxamic acid hybrids: Histone deacetylase inhibitors with anticancer therapeutic potency” (Eur J Med Chem, 2023).

Experiments:
[1] = Metabolic stability in rat liver microsomes assessed as half life; assay type: ADME, Microsome
[2] = Cmax in BALB/c mouse at 50 mg/kg, po; assay type: ADME, organism-based; details: in vivo
[3] = Toxicity in female BALB/c mouse assessed as maximum tolerable dose; details: in vivo
Histone deacetylase = experiment: Inhibition of HDAC in human HeLa cell nuclear extract using Boc-Lys(Ac)-AMC as substrate; assay type: subcellular, Nucleus
[4] = Metabolic stability in human liver microsomes assessed as half life; assay type: ADME, Microsome
[5] = Oral bioavailability in BALB/c mouse at 50 mg/kg; assay type: ADME, organism-based; details: in vivo
[6] = Half life in BALB/c mouse at 50 mg/kg, po; assay type: ADME, organism-based; details: in vivo
[7] = Tmax in BALB/c mouse at 50 mg/kg, po; assay type: ADME, organism-based; details: in vivo
Cytochrome P450 2D6 = Cytochrome P450 2D6 (Homo sapiens, UniProt P10635); experiment: Inhibition of CYP2D6 in human liver microsomes; assay type: ADME, Microsome
Chain of Cytochrome P450 2D6 (P10635 whole entry): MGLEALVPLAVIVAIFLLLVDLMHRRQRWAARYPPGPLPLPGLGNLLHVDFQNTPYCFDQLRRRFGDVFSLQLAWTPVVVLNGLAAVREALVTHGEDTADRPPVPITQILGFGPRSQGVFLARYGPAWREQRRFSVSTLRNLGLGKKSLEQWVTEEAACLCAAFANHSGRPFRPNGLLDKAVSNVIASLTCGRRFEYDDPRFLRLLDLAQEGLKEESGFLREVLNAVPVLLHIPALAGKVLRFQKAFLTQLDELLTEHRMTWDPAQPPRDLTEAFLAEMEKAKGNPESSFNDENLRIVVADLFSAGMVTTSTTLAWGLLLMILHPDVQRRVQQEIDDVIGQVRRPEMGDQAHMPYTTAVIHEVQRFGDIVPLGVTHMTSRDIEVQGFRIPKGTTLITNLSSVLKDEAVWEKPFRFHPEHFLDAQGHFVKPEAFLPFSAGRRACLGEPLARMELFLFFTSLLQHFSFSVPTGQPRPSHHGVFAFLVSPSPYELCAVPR

U-937 [8] = experiment: Antiproliferative activity against human U-937 cells by MTT assay; assay type: functional, cell-based
Histone deacetylase 1 = Histone deacetylase 1 (Homo sapiens, UniProt Q13547); experiment: Inhibition of HDAC1 (unknown origin)
Chain of Histone deacetylase 1 (Q13547 whole entry): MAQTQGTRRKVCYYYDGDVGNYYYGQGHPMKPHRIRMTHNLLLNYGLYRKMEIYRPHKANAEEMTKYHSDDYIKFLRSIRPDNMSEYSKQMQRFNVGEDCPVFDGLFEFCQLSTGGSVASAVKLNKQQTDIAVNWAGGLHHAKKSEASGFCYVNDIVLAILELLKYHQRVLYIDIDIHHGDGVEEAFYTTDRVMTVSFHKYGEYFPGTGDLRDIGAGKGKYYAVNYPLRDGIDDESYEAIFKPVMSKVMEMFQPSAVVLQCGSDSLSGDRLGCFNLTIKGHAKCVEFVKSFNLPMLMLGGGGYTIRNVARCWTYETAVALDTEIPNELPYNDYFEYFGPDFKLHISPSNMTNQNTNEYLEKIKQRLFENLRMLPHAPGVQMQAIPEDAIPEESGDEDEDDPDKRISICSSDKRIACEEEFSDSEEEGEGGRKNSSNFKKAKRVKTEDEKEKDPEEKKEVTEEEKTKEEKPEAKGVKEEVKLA

K562 [9] = experiment: Antiproliferative activity against human K562 cells by MTT assay; assay type: functional, cell-based
HCT-116 [10] = experiment: Antiproliferative activity against human HCT-116 cells by MTT assay; assay type: functional, cell-based
[11] = target: DNA (cytosine-5)-methyltransferase 1 (Homo sapiens, UniProt P26358); experiment: Inhibition of DNMT1 (unknown origin)
Chain of DNA (cytosine-5)-methyltransferase 1 (P26358 whole entry): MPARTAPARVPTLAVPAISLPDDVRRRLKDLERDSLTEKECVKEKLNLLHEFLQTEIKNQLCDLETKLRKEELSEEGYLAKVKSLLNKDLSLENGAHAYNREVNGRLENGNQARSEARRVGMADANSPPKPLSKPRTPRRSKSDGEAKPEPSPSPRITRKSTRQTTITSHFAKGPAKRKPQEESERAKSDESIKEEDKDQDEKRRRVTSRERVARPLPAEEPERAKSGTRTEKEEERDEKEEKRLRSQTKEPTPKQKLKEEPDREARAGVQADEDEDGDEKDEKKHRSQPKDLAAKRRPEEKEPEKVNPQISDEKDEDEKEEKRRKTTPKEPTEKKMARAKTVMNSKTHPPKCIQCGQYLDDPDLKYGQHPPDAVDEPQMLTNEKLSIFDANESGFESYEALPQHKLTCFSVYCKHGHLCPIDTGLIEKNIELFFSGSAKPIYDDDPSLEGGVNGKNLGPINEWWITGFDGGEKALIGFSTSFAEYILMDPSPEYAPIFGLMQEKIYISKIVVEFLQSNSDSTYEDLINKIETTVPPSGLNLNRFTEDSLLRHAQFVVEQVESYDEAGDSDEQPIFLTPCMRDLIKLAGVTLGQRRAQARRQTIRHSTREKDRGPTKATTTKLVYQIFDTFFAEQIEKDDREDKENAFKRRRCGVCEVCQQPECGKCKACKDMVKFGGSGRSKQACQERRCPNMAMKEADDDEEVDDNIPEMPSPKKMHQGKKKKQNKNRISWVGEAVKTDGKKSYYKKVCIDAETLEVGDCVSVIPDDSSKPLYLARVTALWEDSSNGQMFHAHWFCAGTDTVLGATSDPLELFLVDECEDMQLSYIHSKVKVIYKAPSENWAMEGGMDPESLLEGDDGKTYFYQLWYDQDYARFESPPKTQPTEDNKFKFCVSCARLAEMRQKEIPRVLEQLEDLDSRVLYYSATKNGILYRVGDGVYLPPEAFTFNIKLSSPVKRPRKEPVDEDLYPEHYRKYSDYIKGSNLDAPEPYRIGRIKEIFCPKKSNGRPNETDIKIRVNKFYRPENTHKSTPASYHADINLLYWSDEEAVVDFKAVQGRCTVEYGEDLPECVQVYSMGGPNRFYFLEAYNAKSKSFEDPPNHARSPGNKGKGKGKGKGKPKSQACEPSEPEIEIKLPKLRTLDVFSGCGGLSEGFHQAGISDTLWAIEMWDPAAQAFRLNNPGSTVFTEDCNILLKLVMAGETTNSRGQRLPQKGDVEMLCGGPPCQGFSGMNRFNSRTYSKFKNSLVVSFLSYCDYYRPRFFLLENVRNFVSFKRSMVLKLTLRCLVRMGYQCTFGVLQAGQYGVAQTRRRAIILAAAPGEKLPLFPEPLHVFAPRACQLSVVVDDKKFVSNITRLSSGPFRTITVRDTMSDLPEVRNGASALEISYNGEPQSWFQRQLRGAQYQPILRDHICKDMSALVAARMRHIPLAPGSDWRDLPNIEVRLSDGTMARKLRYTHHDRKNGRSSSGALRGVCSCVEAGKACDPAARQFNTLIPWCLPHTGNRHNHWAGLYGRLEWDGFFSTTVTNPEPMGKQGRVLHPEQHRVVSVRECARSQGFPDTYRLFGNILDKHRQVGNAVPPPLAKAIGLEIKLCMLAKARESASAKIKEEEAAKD

[12] = target: T1, Protein deacetylase HDAC6 (Homo sapiens, UniProt Q9UBN7); experiment: Inhibition of HDAC6 (unknown origin)
T1 sequence (Q9UBN7 whole entry): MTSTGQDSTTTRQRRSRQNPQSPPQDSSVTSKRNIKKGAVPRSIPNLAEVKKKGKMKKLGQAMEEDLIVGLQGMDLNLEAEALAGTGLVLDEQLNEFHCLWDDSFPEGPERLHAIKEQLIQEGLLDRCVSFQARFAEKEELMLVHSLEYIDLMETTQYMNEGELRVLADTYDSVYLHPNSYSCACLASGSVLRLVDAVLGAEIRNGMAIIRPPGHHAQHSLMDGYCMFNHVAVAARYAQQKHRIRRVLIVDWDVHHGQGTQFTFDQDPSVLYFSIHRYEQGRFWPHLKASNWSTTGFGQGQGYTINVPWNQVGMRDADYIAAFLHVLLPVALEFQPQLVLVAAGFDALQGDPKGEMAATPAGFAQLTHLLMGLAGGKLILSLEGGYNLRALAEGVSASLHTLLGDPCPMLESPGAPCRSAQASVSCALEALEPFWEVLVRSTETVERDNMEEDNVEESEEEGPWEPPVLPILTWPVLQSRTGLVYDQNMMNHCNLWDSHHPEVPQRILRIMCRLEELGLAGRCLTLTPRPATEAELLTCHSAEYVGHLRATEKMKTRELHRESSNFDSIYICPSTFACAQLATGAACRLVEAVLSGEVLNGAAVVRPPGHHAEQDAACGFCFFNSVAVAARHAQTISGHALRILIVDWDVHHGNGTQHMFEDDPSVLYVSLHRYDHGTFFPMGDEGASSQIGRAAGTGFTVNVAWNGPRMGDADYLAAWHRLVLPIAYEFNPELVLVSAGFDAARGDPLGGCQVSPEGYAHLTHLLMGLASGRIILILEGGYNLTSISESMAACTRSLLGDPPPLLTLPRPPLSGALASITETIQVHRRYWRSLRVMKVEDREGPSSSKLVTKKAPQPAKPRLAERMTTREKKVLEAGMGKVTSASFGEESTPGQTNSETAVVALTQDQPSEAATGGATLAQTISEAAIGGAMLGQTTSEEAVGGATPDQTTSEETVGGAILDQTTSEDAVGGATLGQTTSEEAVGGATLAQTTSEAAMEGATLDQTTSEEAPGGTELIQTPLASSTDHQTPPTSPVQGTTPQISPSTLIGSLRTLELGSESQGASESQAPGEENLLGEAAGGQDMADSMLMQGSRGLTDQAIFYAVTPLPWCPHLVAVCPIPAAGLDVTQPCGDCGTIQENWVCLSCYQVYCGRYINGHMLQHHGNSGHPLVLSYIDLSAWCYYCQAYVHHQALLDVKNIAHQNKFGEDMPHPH

HL-60 [13] = experiment: Cytotoxicity against human HL-60 cells assessed as reduction in cell viability incubated for 72 hr by MTT assay; assay type: functional, cell-based; details: HL-60, 72 h
Plasmodium falciparum [14] = experiment: Antiplasmodial activity against artemisinin-resistant Plasmodium falciparum Dd2 R539T assessed as reduction in parasite growth incubated for 3 days by ELISA analysis; assay type: functional, organism-based; details: 72 h
NALM-6 = experiment: Cytotoxicity against human NALM-6 cells assessed as reduction in cell viability incubated for 72 hrs by MTT assay; assay type: functional, cell-based; details: NALM-6, 72 h
HL-60 [15] = experiment: Cytotoxicity against human HL-60 cells assessed as reduction in cell viability incubated for 72 hrs by Cell-titer Glo based analysis; assay type: functional; details: HL-60, 72 h
[16] = target: T1, Protein deacetylase HDAC6; experiment: Inhibition of human recombinant HDAC6 using ZMAL (Z-Lys(Ac)-AMC as fluorogenic substrate pre-incubated for 30 mins followed by substrate addition and measured for 1 hr by Fluorescence based analysis
Plasmodium falciparum [17] = experiment: Antiplasmodial activity against Plasmodium falciparum Dd2 assessed as reduction in parasite growth incubated for 3 days by ELISA analysis; assay type: functional, organism-based; details: Dd2, 72 h
K562 [18] = experiment: Cytotoxicity against human K562 cells assessed as reduction in cell viability incubated for 72 hrs by Cell-titer Glo based analysis; assay type: functional; details: K562, 72 h
HPBALL = experiment: Cytotoxicity against human HPBALL cells assessed as reduction in cell viability incubated for 72 hrs by MTT assay; assay type: functional, cell-based
MOLM-13 = experiment: Antiproliferative activity against human MOLM-13 cells assessed as reduction in cell viability incubated for 72 hrs by MTT assay; assay type: functional, cell-based; details: MOLM-13, 72 h
Plasmodium falciparum [19] = experiment: Antiplasmodial activity against Plasmodium falciparum 3D7 assessed as reduction in parasite growth incubated for 3 days by ELISA analysis; assay type: functional, organism-based; details: 3D7, 72 h
K562 [20] = experiment: cells; assay type: functional, cell-based; details: Homo sapiens, K562, 72 h
Description: Antiproliferative activity against human K562 cells assessed as inhibition of cell growth measured after 72 hrs by CCK-8 assay

HepG2 = experiment: cells; assay type: functional, cell-based; details: Homo sapiens, HepG2, 72 h
FaDu = experiment: cells; assay type: functional, cell-based; details: Homo sapiens, 72 h
Description: Antiproliferative activity against human FaDu cells assessed as inhibition of cell growth measured after 72 hrs by CCK-8 assay

A2780 = experiment: cells; assay type: functional, cell-based; details: Homo sapiens, A2780, 72 h
Description: Antiproliferative activity against human A2780 cells assessed as inhibition of cell growth measured after 72 hrs by CCK-8 assay

C6 = experiment: cells; assay type: functional, cell-based; details: Rattus norvegicus, C6, 72 h
Description: Antiproliferative activity against rat C6 cells assessed as inhibition of cell growth measured after 72 hrs by CCK-8 assay

U-266 = experiment: cells; assay type: functional, cell-based; details: Homo sapiens, U-266, 72 h
Description: Antiproliferative activity against human U-266 cells assessed as inhibition of cell growth measured after 72 hrs by CCK-8 assay

U-937 [21] = experiment: cells; assay type: functional, cell-based; details: Homo sapiens, U-937, 72 h
Description: Antiproliferative activity against human U-937 cells assessed as inhibition of cell growth measured after 72 hrs by CCK-8 assay

MDA-MB-231 = experiment: cells; assay type: functional, cell-based; details: Homo sapiens, MDA-MB-231, 72 h
Description: Antiproliferative activity against human MDA-MB-231 cells assessed as inhibition of cell growth measured after 72 hrs by CCK-8 assay

MDA-MB-468 = experiment: cells; assay type: functional, cell-based; details: Homo sapiens, MDA-MB-468, 72 h
Description: Antiproliferative activity against human MDA-MB-468 cells assessed as inhibition of cell growth measured after 72 hrs by CCK-8 assay

A549 = experiment: cells; assay type: functional, cell-based; details: Homo sapiens, A549, 72 h
Description: Antiproliferative activity against human A549 cells assessed as inhibition of cell growth measured after 72 hrs by CCK-8 assay

KYSE-450 [22] = experiment: Potency index, ratio of TAE-226 IC50 to test compound IC50 for antiproliferative activity against human KYSE-450 cells; assay type: functional
MGC-803 [23] = experiment: Antiproliferative activity against human MGC-803 cells; assay type: functional, cell-based
KYSE-450 [24] = experiment: Potency index, ratio of vorinostat IC50 to test compound IC50 for antiproliferative activity against human KYSE-450 cells; assay type: functional
HCT-116 [25] = experiment: cells; details: Homo sapiens
KYSE-450 [26] = experiment: Antiproliferative activity against human KYSE-450 cells; assay type: functional, cell-based
HGC-27 = experiment: Antiproliferative activity against human HGC-27 cells; assay type: functional, cell-based
MGC-803 [27] = experiment: Antitumor activity against human MGC-803 cells xenografted in mouse assessed as tumor growth inhibition at 20 mg/kg relative to control; assay type: functional; details: read-out: TGI
BGC-823 = experiment: Antiproliferative activity against human BGC-823 cells; assay type: functional, cell-based
Focal adhesion kinase 1 = Focal adhesion kinase 1 (Homo sapiens, UniProt Q05397); experiment: Inhibition of FAK (unknown origin)
Chain of Focal adhesion kinase 1 (Q05397 whole entry): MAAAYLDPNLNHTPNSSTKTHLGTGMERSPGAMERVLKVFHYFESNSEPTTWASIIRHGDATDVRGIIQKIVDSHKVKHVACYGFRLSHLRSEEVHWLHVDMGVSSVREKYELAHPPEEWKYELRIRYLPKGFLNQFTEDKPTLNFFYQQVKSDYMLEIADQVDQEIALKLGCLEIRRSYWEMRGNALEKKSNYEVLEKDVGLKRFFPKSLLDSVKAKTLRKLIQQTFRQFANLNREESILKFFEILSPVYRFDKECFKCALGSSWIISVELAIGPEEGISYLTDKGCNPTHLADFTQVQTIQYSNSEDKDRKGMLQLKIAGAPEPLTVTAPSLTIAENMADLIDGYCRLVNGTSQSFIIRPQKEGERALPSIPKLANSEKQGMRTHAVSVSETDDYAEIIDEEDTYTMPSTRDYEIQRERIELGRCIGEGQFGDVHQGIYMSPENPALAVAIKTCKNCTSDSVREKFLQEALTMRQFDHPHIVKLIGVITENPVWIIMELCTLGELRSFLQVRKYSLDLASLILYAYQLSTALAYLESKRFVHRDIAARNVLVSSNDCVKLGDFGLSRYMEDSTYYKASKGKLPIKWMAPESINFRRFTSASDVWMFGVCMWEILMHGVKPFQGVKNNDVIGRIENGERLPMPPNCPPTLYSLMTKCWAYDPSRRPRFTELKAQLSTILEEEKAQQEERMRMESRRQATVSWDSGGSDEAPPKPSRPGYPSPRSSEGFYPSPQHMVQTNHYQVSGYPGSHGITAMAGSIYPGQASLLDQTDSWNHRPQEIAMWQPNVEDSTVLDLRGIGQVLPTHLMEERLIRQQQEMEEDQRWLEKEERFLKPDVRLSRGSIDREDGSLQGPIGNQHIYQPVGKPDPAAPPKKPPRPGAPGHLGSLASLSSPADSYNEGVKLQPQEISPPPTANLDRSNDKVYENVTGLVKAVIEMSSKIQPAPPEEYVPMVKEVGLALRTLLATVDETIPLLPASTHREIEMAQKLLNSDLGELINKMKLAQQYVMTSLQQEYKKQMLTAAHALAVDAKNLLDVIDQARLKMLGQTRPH

HCT-116 [28] = experiment: Potency index, ratio of TAE-226 IC50 to test compound IC50 for antiproliferative activity against human HCT-116 cells; assay type: functional
HCT-116 [29] = experiment: Potency index, ratio of vorinostat IC50 to test compound IC50 for antiproliferative activity against human HCT-116 cells; assay type: functional

Structure (SMILES): CC(C)n1cnc2c(-c3cccc(OCCCC(=O)NO)c3)nc(N3CCOCC3)nc21
- half-life [1]: > 0.75 h
- Cmax [2]: 1620 ng/mL
- MTD [3]: 200 mg/kg
- IC50 (Histone deacetylase): 35 nM
- half-life [4]: > 0.75 h
- bioavailability [5]: 21%
- half-life [6]: 1.89 h
- Tmax [7]: 9 min

Structure (SMILES): Nc1ccn(Cc2ccc(-c3cn(CCCCCCC(=O)NO)nn3)cc2)c(=O)n1
- IC50 (Cytochrome P450 2D6): 8700 nM
- half-life [1]: 6.08 h
- IC50 (U-937 [8]): 7100 nM
- IC50 (Histone deacetylase 1): 2.68 nM
- IC50 (K562 [9]): 7100 nM
- IC50 (HCT-116 [10]): 7100 nM
- IC50 [11]: 6390 nM
- IC50 [12]: 8.37 nM

Structure (SMILES): C[C@@H]1CC[C@H]2[C@@H](C)C(SCCC(=O)NO)C[C@@H]3O[C@]4(C)CC[C@@H]1[C@]32OO4 (stereo partly drawn)
- IC50 (HL-60 [13]): 690 nM
- IC50 (Plasmodium falciparum [14]): 1.9 nM
- IC50 (NALM-6): 260 nM
- IC50 (HL-60 [15]): 690 nM
- IC50 [16]: 45 nM
- IC50 (Plasmodium falciparum [17]): 1.9 nM
- IC50 (K562 [18]): 690 nM
- IC50 (HPBALL): 150 nM
- IC50 (MOLM-13): 690 nM
- IC50 (Plasmodium falciparum [19]): 1.9 nM

Structure (SMILES): COc1cc(Nc2nc(N3CCN(c4ncc(C(=O)NO)cn4)CC3)ncc2Cl)cc(OC)c1
- IC50 (K562 [20]): 280 nM
- IC50 (HepG2): 280 nM
- IC50 (FaDu): 280 nM
- IC50 (A2780): 280 nM
- IC50 (C6): 280 nM
- IC50 (U-266): 280 nM
- IC50 (U-937 [21]): 280 nM
- IC50 (MDA-MB-231): 280 nM
- IC50 (MDA-MB-468): 280 nM
- IC50 (A549): 280 nM

Structure (SMILES): CNC(=O)c1ccccc1Nc1nc(Nc2ccc(NC(=O)CCCCCCC(=O)NO)cc2)ncc1Cl
- Ratio IC50 (KYSE-450 [22]): 2.8
- IC50 (MGC-803 [23]): 3.9 nM
- Ratio IC50 (KYSE-450 [24]): 2.8
- IC50 (HCT-116 [25]): 182 nM
- IC50 (KYSE-450 [26]): 182 nM
- IC50 (HGC-27): 18.4 nM
- inhibition in vivo at 20 mg/kg (MGC-803 [27]): 53.5%
- IC50 (BGC-823): 15.4 nM
- IC50 (Focal adhesion kinase 1): 132 nM
- Ratio IC50 (HCT-116 [28]): 2.8
- Ratio IC50 (HCT-116 [29]): 2.8
- IC50 [12]: 16 nM
